The values below come from US20210130291A1, “METHODS FOR TREATING DIABETES USING VDAC1 INHIBITORS” (THE NATIONAL INSTITUTE FOR BIOTECHNOLOGY IN THE NEGEV LTD., priority 2016, published 2021).

Experiment [1] deals with VDAC1 expression in INS-1 cells. Nature of the experiment: VDAC1 expression in INS-1 cells cultured at 5 or 20 mM glucose. Type of experiment: cell-based, rat. As for the experimental part: INS-1 832/13 cells (kindly donated by Dr. C. B. Newgaard, Duke University, USA) were cultured in RPMI-1640 containing 11.1 mM D-glucose and supplemented with 10% fetal bovine serum, 100 U/ml penicillin (Gibco), 100 µg/ml streptomycin (Gibco), 10 mM HEPES, 2 mM glutamine, 1 mM sodium pyruvate, and 50 µM β-mercaptoethanol (Sigma), at 37° C. in a humidified atmosphere containing 95% air and 5% CO2. For VDAC1 over-expression by VDAC1 plasmid (1 μg/ml) and VDAC2 down-regulation by and siRNA, INS1 832/13 cells were cultured to 60% confluence. To study the long-term effects (24-72 h) of high glucose (20 mM) (glucotoxicity) compared to basal glucose (5 mM), INS-1 832/13 cells were cultured with RPMI 1640 complete media (Ahmed, M., et al., 2010. Islets 2, 283-292) in the presence or absence of indicated agents and thereafter VDAC1 expression, cell viability and function was measured.
Total RNA from handpicked mouse islets, human donor islets (Diabetic and non-diabetic) or INS1 832/13 cells were extracted using RNAeasy (Qiagen, Hilden, Germany). RNA ([…]) was used for cDNA synthesis with SuperScript (Invitrogen, Carlsbad, Calif., USA). Concentration and purity of total RNA was measured with a NanoDrop ND-1000 spectrophotometer (A260/A280>1.9 and A260/A230>1.4) (NanoDrop Technologies, Wilmington, Del.) and RNA Quality Indicator (RQI) higher than 8.0 (Experion Automated Electrophoresis, Bio-Rad, USA) was considered to be high-quality total RNA preparations. A 10 μl of reaction mixture with 20 ng cDNA, 5 μl TaqMan mastermix (Applied Biosystems, Foster City, Calif., USA), and 100 nM TagMan gene expression assay were run in a 7900HT Fast Real-Time System (Applied Biosystems). The qPCR was carried out as follows: 50° C. for 2 minutes, 95° C. for 10 minutes, 40 cycles of 95° C. for 15 seconds, and 60° C. for 1 minute. The amount of mRNA was calculated relative to the amount of housekeeping genes (GAPDH, PPIA or HPRT) mRNA in the same sample by the formula X0/R0=2CtR-CtX, where X0 is the original amount of mRNA for the gene of interest, R0 is the original amount of HPRT mRNA, CtR the Ct value for HPRT, and CtX the Ct value for the gene of interest. Primer sequences are provided upon request.

For experiment [2], the target named is T1, plasma membrane targeted VDAC1 (plVDAC1) (Mus musculus, UniProt Q60932).
T1 construct: expressed in transfected cells; host or cells: INS-1 832/13 cells (rat insulinoma), transient transfection; plasmid a gift from Dr. R. Buettner
T1 sequence (Q60932 whole entry): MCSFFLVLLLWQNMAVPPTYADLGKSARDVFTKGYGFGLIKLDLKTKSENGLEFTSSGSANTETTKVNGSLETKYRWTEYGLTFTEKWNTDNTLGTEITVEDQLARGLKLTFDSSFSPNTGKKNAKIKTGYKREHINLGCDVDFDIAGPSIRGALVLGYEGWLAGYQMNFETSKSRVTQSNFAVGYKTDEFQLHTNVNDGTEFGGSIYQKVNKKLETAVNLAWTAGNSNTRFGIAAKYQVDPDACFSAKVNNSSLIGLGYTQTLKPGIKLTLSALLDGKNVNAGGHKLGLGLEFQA
Nature of the experiment: ATP release and ATP content of INS-1 cells transfected with plasma membrane targeted VDAC1. The conditions noted are these: for ATP release: racemate and enantiomers (FIG. 9a). Type of experiment: cell-based. As for the experimental part:
(§1) ATP release from isolated mouse or human islets or from INS-1 cells after transfection with mitochondrial targeted VDAC1 (mtVDAC1) or plasma membrane targeted VDAC1 (plVDAC1) plasmids was determined using a luminometric assay kit according to manufacturer's recommendation (Biovision). After incubation of islets (50/vial) or INS-1 cells for 60 min, an aliquot of the media was removed for subsequent measurements of released ATP. Then the islets or INS-1 cells were washed 3 times and the lysates were used for measurements of ATP and protein contents followed the protocol provided by the vendor.
INS-1 cells were transiently transfected with a plasmid encoding plasma membrane targeted VDAC1 (pVDAC1) as described in the Material and Method section herein above and in Example 3 (see also Buettner et al 2000. PNAS 97:3201-3206). After transfection (24-32 h and 2-4 h recovery in normal culture medium, RPMI 1640 with complete supplement) the INS-1 cells were washed followed by preincubation in SAB-buffer (See Material and Method above) containing 2.8 mM glucose. The final 1 h incubation was performed in SAB-buffer containing 1 mM glucose and the VDAC1 inhibitory compounds to be tested. At the end, the cells were lysed using lysis buffer, sonicated and the lysate as well as the incubation medium were analyzed for ATP content using a commercially available kit (Biovision, K354-100). Cellular protein content was analyzed by Pierce™ BCA protein assay kit (Thermo Scientific, USA).

In experiment [3] the test system is islets of C57/BL mice. Nature of the experiment: ATP content and GSIS in islets of control C57/BL mice. Type of experiment: cell-based, mouse. The note with it: VDAC1 antibody 10 nM. As to the method: 5 weeks old db/db mice and control (C57/bl) (Janvier Laboratory, France), weighing 18-25 g, were used throughout the experiments. They were given a standard pellet diet (B&K) and tap water ad libitum. The experimental procedures were approved by the Ethics Committee for Animal Research at Lund University. Isolation of pancreatic islets was performed by retrograde injection of a collagenase solution via the bile-pancreatic duct and islets were then collected under a stereomicroscope at room temperature.
(§2) Human pancreatic islets were collected under a stereomicroscope at room temperature and cultured at 5.5 or 20 mM glucose in the absence or presence of test agents for 72 h. Thereafter the islets were washed and preincubated for 30 min at 37° C. in Krebs Ringer bicarbonate buffer, pH 7.4, supplemented with N-2 hydroxyethylpiperazine-N′-2-ethanesulfonic acid (10 mM), 0.1% bovine serum albumin, and 1 mM glucose. Each incubation vial contained 12 islets in 1.0 ml KRB buffer solution and treated with 95% O2 and 5% CO2 to obtain constant pH and oxygenation. After preincubation, the buffer was changed to a medium containing either 1 mM or 16.7 mM glucose. The islets were then incubated for 1 h at 37° C. in a metabolic shaker (30 cycles per min). Immediately after incubation an aliquot of the medium was removed for analysis of insulin and the islets were incubated in acid-ethanol for insulin content determination by radioimmunoassay.
as §1

The subject of experiment [4] is islets from T2D donors. Nature of the experiment: ATP content and GSIS in islets from T2D donors, acute addition of VDAC1 inhibitors. Type of experiment: cell-based, human.
Excerpt: Human pancreatic islets were obtained through collaboration between Human Tissue Laboratory within Lund University Diabetes Centre (LUDC) and the Nordic Network for Clinical Islet Transplantation (Prof. Olle Korsgren, Uppsala University, Sweden). Donors were grouped according to HbA1c i.e. less than 6% (ND), between 6% and 6.5% (IGT), higher than 6.5% or history of diabetes (T2D). The human islets (70-90% purity) had been cultured in CMRL 1066 (ICN Biomedicals, Costa Mesa, Calif.) supplemented with 10 mM HEPES, 2 mM L-glutamine, […] gentamicin, […] fungizone (Gibco, BRL, Gaithersburg, Md.), 20 μg/ml ciprofloxacin (Bayer Healthcare, Leverkusen, Germany) and 10 mM nicotinamide at 37° C. (5% CO2) for 1 to 5 days prior to the arrival in the laboratory. The islets were then hand-picked under stereomicroscope prior to use. All procedures using human islets were approved by the ethical committees at Uppsala and Lund Universities, Sweden.
as §2, §1

[5] abbreviates: plVDAC1-transfected INS-1 cells, 1 h at 1 mM glucose.

“Also recorded” adds a separate entry of the source.

As for `O=CC[C@@H](O)[C@H](O)[C@H](O)CO` [2-deoxyglucose, reference compound], the VDAC1 expression entry in experiment [1] (INS-1 cells, 2-deoxyglucose, data not shown) is on record as “increased VDAC1 expression”.
Consider `O=C1CC(N2CCC(Nc3ccc(OC(F)(F)F)cc3)CC2)C(=O)N1c1ccc(Cl)cc1` (centres unmarked) [AKOS, 1-(4-Chloro-phenyl)-3-[4-(4-trifluoromethoxy-phenylamino)-piperidin-1-yl]-pyrrolidine-2,5-dione], for which the “glucose evoked VDAC1 upregulation (total VDAC1 expression)” value in experiment [1] (INS-1 cells cultured 72 h at 20 mM glucose, VDAC1ab 10 nM, metformin, AKOS, VBIT-4 20 μM each (FIG. 4l, 4m)) is reported as “abrogated the glucose evoked VDAC1 upregulation”. Further, in experiment [2] (plVDAC1-transfected INS-1 cells, 1 h at 1 mM glucose, VDAC1-ab 10 nM, metformin, AKOS, VBIT-4 20 μM each (FIG. 4c)), the “ATP release (loss of cellular ATP)” value was “prevented; also recorded: rapidly inhibited”. Moreover, the GSIS entry in experiment [3] (others 20 μM (FIG. 7e)) is listed as “do not affect”; in experiment [4] (T2D islets, acute addition 1 h (FIG. 6f)), “increased in parallel with the improved ATP generation”. For the same molecule, the ATP content result in experiment [3] (others 20 μM (FIG. 7d)) was “do not affect”. Besides, in experiment [4] (islets from 5 T2D donors and one IGT donor, 1 h, at 1 and 16.7 mM glucose (FIG. 6e)), the “islet ATP content” value is recorded as “increased islet ATP content”.
As to `CC1(C)C(=O)N([C@H]2CCc3c(O)cccc32)c2nc(Nc3cccc(CN4CCCC4)c3)ncc21` [MRT199665, reference compound], the “effect of AMPK inhibitor on metformin-inhibited ATP release” value in experiment [2] (plVDAC1 transfected INS-1 cells, MRT199665 5 μM with metformin (FIG. 4i)) is recorded as “neither attenuated”.
`O=C(CC(CO)N1CCN(c2ccc(OC(F)(F)F)cc2)CC1)Nc1ccc(Cl)cc1` (centres unmarked) [VBIT-4-1]: the ATP release result in experiment [2] (setting [5]) is given as “efficiently inhibit ATP release”. For the same molecule, the “cellular ATP content” value in experiment [2] (plVDAC1-transfected INS-1 cells, 1 h at 1 mM glucose, racemate and enantiomers (FIG. 9b)) was “increase cellular ATP content”.
As to `O=C(CC(CO)N1CCN(c2ccc(OC(F)(F)F)cc2)CC1)Nc1ccc(Cl)cc1` (centres unmarked) [VBIT-4-2], the ATP release result in experiment [2] (setting [5]) is “efficiently inhibit ATP release”.
